Assay results reported in patent publication US20090099169A1, “Benzofuran Compounds As EP1 Receptor Antagonists” (GLAXO GROUP LIMITED, priority 2006, published 2009).
Where a name gives a salt, the structure may show the parent alone.

Assays:
human EP3 receptor = target: T1, human EP3 receptor (Homo sapiens, UniProt P43115); assay: human EP3 calcium mobilisation assay; format: cell-based; settings: CHO-K1 cells, antagonism of PGE2; averages of a number of experiments; read-out: functional pKi value (human EP3 calcium mobilisation assay) (converted)
T1 construct: expressed in transfected cells; host or cells: CHO-K1
T1 sequence (P43115 1-390): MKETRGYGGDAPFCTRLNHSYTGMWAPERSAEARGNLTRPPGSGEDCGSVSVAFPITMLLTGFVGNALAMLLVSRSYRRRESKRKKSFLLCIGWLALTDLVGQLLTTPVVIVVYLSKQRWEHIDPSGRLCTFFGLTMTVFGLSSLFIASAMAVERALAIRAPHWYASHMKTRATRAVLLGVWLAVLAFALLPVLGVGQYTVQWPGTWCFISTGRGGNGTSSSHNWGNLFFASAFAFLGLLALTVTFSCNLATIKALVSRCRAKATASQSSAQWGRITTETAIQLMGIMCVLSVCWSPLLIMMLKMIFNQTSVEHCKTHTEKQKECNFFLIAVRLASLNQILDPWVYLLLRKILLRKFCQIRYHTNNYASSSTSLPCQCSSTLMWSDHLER
Procedure: (§1) Briefly, the antagonist properties of compounds are assessed by their ability to inhibit the mobilisation of intracellular calcium ([Ca^2+]i) in response to activation of EP1 or EP3 receptors by the natural agonist hormone prostaglandin E2 (PGE2). Increasing concentrations of antagonist reduce the amount of calcium that a given concentration of PGE2 can mobilise. The net effect is to displace the PGE2 concentration-effect curve to higher concentrations of PGE2. The amount of calcium produced is assessed using a calcium-sensitive fluorescent dye such as Fluo-4, AM and a suitable instrument such as a Fluorimetric Imaging Plate Reader (FLIPR). Increasing amounts of [Ca^2+]i produced by receptor activation increase the amount of fluorescence produced by the dye and give rise to an increasing signal. The signal may be detected using the FLIPR instrument and the data generated may be analysed with suitable curve-fitting software.
(§2) The human EP1 or EP3 calcium mobilisation assay (hereafter referred to as ‘the calcium assay’) utilises Chinese hamster ovary-K1 (CHO-K1) cells into which a stable (PCIN; BioTechniques 20 (1996): 102-110) vector containing either EP1 or EP3 cDNA has previously been transfected. Cells are cultured in suitable flasks containing culture medium such as DMEM:F-12 supplemented with 10% v/v foetal calf serum, 2 mM L-glutamine, 0.25 mg/ml geneticin, 100 μM flurbiprofen and 10 μg/ml puromycin.
(§3) For assay, cells are harvested using a proprietary reagent that dislodges cells such as Versene. Cells are re-suspended in a suitable quantity of fresh culture media for introduction into a 384-well plate. Following incubation for 24 hours at 37° C. the culture media is replaced with a medium containing Fluo-4 and the detergent pluronic acid, and a further incubation takes place. Concentrations of compounds are then added to the plate in order to construct concentration-effect curves. This may be performed on the FLIPR in order to assess the agonist properties of the compounds. Concentrations of PGE2 are then added to the plate in order to assess the antagonist properties of the compounds.
(§4) The data so generated may be analysed by means of a computerised curve-fitting routine. The concentration of compound that elicits a half-maximal inhibition of the calcium mobilisation induced by PGE2 (pIC50) may then be estimated.

human EP1 receptor [1] = target: T2, human EP1 receptor (Homo sapiens, UniProt P34995); assay: human EP1 calcium mobilisation assay; format: cell-based; parameters: expressed in transfected cells; settings: CHO-K1 cells, antagonism of PGE2; averages of a number of experiments; read-out: functional pKi value (human EP1 calcium mobilisation assay) (converted)
T2 sequence (P34995 1-402): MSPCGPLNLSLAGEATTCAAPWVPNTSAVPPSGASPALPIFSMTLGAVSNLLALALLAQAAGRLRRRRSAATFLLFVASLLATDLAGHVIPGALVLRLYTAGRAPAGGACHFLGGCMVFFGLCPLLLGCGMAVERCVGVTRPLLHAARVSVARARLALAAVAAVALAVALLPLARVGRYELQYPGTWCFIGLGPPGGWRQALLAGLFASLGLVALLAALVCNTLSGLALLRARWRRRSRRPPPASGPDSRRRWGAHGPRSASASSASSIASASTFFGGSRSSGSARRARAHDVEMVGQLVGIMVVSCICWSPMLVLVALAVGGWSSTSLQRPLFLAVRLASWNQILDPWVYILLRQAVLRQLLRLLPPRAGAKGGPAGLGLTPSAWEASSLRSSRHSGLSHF
Procedure: as §1, §2, §3, §4

human EP1 receptor [2] = target: T2, human EP1 receptor; assay: Binding assay for the human prostanoid EP1 receptor (radioligand competition); parameters: expressed in transfected cells; host or cells: CHO-K1 (membranes); settings: CHO-K1 membranes; [3H]-PGE2 for Examples 1-17, 19, 33, 34, 60 and 61, 3-{2-[5-Bromo-2-(2,4-difluorobenzyloxy)-phenyl]-5-methyl-pyrrol-1-yl}-6-[3H3-methoxy]methoxy-benzoic acid for the remaining; averages of a number of experiments; read-out: pIC50 value (binding assay for the human prostanoid EP1 receptor) (converted)
Procedure: Compound potencies are determined using a radioligand binding assay. In this assay compound potencies are determined from their ability to compete with tritiated prostaglandin E2 ([^3H]-PGE2) for binding to the human EP1 receptor.
This assay utilises Chinese hamster ovary-K1 (CHO-K1) cells into which a stable vector containing the EP1 cDNA has previously been transfected. Cells are cultured in suitable flasks containing culture medium such as DMEM:F-12 supplemented with 10% v/v foetal calf serum, 2 mM L-glutamine, 0.25 mg/ml geneticin, 10 μg/ml puromycin and 10 μM indomethacin.
Cells are detached from the culture flasks by incubation in calcium and magnesium free phosphate buffered saline containing 1 mM disodium ethylenediaminetetraacetic acid (Na2EDTA) and […] indomethacin for 5 min. The cells are isolated by centrifugation at 250×g for 5mins and suspended in an ice cold buffer such as 50 mM Tris, 1 mM Na2EDTA, 140 mM NaCl, 10 μM indomethacin (pH 7.4). The cells are homogenised using a Polytron tissue disrupter (2×10 s burst at full setting), centrifuged at 48,000×g for 20mins and the pellet containing the membrane fraction is washed (optional) three times by suspension and centrifugation at 48,000×g for 20mins. The final membrane pellet is suspended in an assay buffer such as 10 mM 2-[N-morpholino]ethanesulphonic acid, 1 mM Na2EDTA, 10 mM MgCl2 (pH 6). Aliquots are frozen at −80° C. until required.
(§5) For the binding assay the cell membranes, competing compounds and [^3H]-PGE2 (3 nM final assay concentration) are incubated in a final volume of 100 μl for 30 min at 30° C. All reagents are prepared in assay buffer. Reactions are terminated by rapid vacuum filtration over GF/B filters using a Brandell cell harvester. The filters are washed with ice cold assay buffer, dried and the radioactivity retained on the filters is measured by liquid scintillation counting in Packard TopCount scintillation counter.
The data are analysed using non linear curve fitting techniques to determine the concentration of compound producing 50% inhibition of specific binding (IC50).
Alternatively a similar assay may be carried out using 3-{2-[5-Bromo-2-(2,4-difluoro-benzyloxy)-phenyl]-5-methyl-pyrrol-1-yl}-6-[^3H3-methoxy]methoxy-benzoic acid instead of [^3H]-PGE2.
For the binding assay using 3-{2-[5-Bromo-2-(2,4-difluoro-benzyloxy)-phenyl]-5-methyl-pyrrol-1-yl}-6-[^3H3-methoxy]methoxy-benzoic acid instead of [^3H]-PGE2 the assay is carried out using a similar procedure to that described above using [^3H]-PGE2 with the following changes:
as §5, with “The” for “For the binding assay the”, “3-{2-[5-Bromo-2-(2,4-difluoro-benzyloxy)-phenyl]-5-methyl-pyrrol-1-yl}-6-[^3H3-methoxy]methoxy-benzoic acid (0.2” for “[^3H]-PGE2 (3”, “400” for “100”, “45” for “30”, “37°” for “30°”, “water at ambient temperature,” for “ice cold assay buffer,”
The preparation of 3-{2-[5-Bromo-2-(2,4-difluoro-benzyloxy)-phenyl]-5-methyl-pyrrol-1-yl}-6-methoxy-benzoic acid is described in WO 03/101959 and in Hall et al, Biorg. Med. Chem. Lett., 2007, 17, 916-920. The tritiated version may be prepared via conventional routes, e.g. from 3-{2-[5-bromo-2-(2,4-difluoro-benzyloxy)-phenyl]-5-methyl-pyrrol-1-yl}-6-hydroxy-benzoic acid or 3-{2-[5-bromo-2-(2,4-difluoro-benzyloxy)-phenyl]-5-methyl-pyrrol-1-yl}-6-hydroxy-benzoic acid methyl ester.

Structure (SMILES)	Ki (human EP3 receptor) [µM]	Ki (human EP1 receptor [1]) [µM]	IC50 (human EP1 receptor [2]) [µM]
Cc1cc(NC(=O)OCC2CCNCC2)nn1Cc1cc(Cl)cc2cc(C(C)C)oc12 [Example 4, 4-Piperidinylmethyl (1-{[5-chloro-2-(1-methylethyl)-1-benzofuran-7-yl]methyl}-5-methyl-1H-pyrazol-3-yl)carbamate Hydrochloride]	0.501 to 10	≤ 0.316	–
CCCc1cc2cc(Cl)cc(Cn3nc(C(=O)O)cc3C)c2o1 [Example 21, 1-[(5-chloro-2-propyl-1-benzofuran-7-yl)methyl]-5-methyl-1H-pyrazole-3-carboxylic Acid]	0.501 to 10	≤ 0.316	≤ 0.1
Cc1cc(C(=O)O)nn1Cc1cc(S(C)(=O)=O)cc2cc(C(C)C)oc12 [Example 22, 5-methyl-1-{[2-(1-methylethyl)-5-(methylsulfonyl)-1-benzofuran-7-yl]methyl}-1H-pyrazole-3-carboxylic Acid]	0.501 to 10	≤ 0.316	≤ 0.1
Cc1cc(C(=O)O)nn1Cc1cc(Cl)cc2cc(C3CCCCC3)oc12 [Example 26, 1-[(5-Chloro-2-cyclohexyl-1-benzofuran-7-yl)methyl]-5-methyl-1H-pyrazole-3-carboxylic Acid]	0.501 to 10	≤ 0.316	≤ 0.1
Cc1cc(C(=O)N2CCOCC2)nn1Cc1cc(Cl)cc2cc(C3CC3)oc12 [Example 32, 4-({1-[(5-chloro-2-cyclopropyl-1-benzofuran-7-yl)methyl]-5-methyl-1H-pyrazol-3-yl}carbonyl)morpholine]	0.501 to 10	≤ 0.316	–
CC(C)NC(=O)c1ccc(Cc2cc(Cl)cc3cc(C(C)C)oc23)o1 [Example 38, 5-{[5-Chloro-2-(1-methylethyl)-1-benzofuran-7-yl]methyl}-N-(1-methylethyl)-2-furancarboxamide]	0.501 to 10	–	–
CC(C)c1cc2cc(Cl)cc(Cc3ccc(C(=O)NN(C)C)o3)c2o1 [Example 39, 5-{[5-Chloro-2-(1-methylethyl)-1-benzofuran-7-yl]methyl}-N′,N′-dimethyl-2-furancarbohydrazide]	0.501 to 10	≤ 0.316	–
CC(C)c1cc2cc(Cl)cc(Cc3cccc(C(=O)NN4CCOCC4)n3)c2o1 [Example 44, 6-{[5-Chloro-2-(1-methylethyl)-1-benzofuran-7-yl]methyl}-N-4-morpholinyl-2-pyridinecarboxammide]	0.501 to 10	≤ 0.316	≤ 0.1
CC(C)c1cc2cc(Cl)cc(Cc3cccc(C(=O)NCC4CCNCC4)n3)c2o1 [Example 47, 6-{[5-Chloro-2-(1-methylethyl)-1-benzofuran-7-yl]methyl}-N-(4-piperidinylmethyl)-2-pyridinecarboxamidehydrochloride]	0.501 to 10	–	–
Cc1cc(C(=O)Nc2ccc(CN3CCOCC3)cc2)nn1Cc1cc(Br)cc2cc(C(C)C)oc12 [Example 52, 1-{[5-Bromo-2-(1-methylethyl)-1-benzofuran-7-yl]methyl}-5-mthyl-N-[4-(4-morpholinylmethyl)phenyl]-1H-pyrazole-3-carboxamidehydrochloride]	–	≤ 0.316	≤ 0.1
CCNCc1ccc(NC(=O)c2ccc(Cc3cc(Cl)cc4cc(C(C)C)oc34)o2)cc1 [Example 56, 5-{[5-Chloro-2-(1-methylethyl)-1-benzofuran-7-yl]methyl}-N-{4-[(ethylamino)methyl]phenyl}-2-furancarboxamide Hydrochloride]	0.501 to 10	≤ 0.316	–
Cc1cc(C(=O)NC2CCOCC2)nn1Cc1cc(Cl)cc2cc(C(C)C)oc12 [Example 60, 1-{[5-chloro-2-(1-methylethyl)-1-benzofuran-7-yl]methyl}-5-methyl-N-(tetrahydro-2H-pyran-4-yl)-1H-pyrazole-3-carboxamide]	–	≤ 0.316	≤ 0.1
Cc1cc(NC(=O)C(C)C)nn1Cc1cc(C#N)cc2cc(C(C)C)oc12 [Example 68, N-(1-{[5-Cyano-2-(1-methylethyl)-1-benzofuran-7-yl]methyl}-5-methyl-1H-pyrazol-3-yl)-2-methylpropanamide]	–	≤ 0.316	≤ 0.1
